Target: T1, Protein tyrosine phosphatase 1B (PTP1B) (Homo sapiens, UniProt P18031)
T1 construct: gene PTPN1
T1 sequence (P18031 1-435): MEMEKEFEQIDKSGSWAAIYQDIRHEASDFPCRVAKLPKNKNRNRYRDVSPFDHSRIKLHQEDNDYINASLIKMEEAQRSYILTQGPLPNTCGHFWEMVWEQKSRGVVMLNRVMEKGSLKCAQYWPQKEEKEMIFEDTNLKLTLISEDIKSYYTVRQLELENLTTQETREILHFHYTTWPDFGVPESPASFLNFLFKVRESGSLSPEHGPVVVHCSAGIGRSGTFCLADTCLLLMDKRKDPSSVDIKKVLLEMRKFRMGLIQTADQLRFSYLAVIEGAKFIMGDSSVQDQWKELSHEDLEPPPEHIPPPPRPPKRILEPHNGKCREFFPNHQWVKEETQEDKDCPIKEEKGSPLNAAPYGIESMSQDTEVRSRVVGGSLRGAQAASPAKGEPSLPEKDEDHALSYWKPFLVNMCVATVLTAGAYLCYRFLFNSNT
Test: pNPP hydrolysis assay ([…] nm) with human recombinant PTP1B; Dixon and Lineweaver-Burk kinetics
Format: biochemical

CC(C)=CC[C@@H](O)C1=CC(=O)c2c(O)ccc(O)c2C1=O [Shikonin, 5,8-dihydroxy-2-[(1R)-1-hydroxy-4-methylpent-3-enyl] naphthalene-1,4-dione]
IC50: 15.5 µM

From publication PMC8271486, “Assessment of Antidiabetic Activity of the Shikonin by Allosteric Inhibition of Protein-Tyrosine Phosphatase 1B (PTP1B) Using State of Art: An In Silico and In Vitro Tactics” (Molecules, 2021)
